Patent US20260327233A1, “Heteroaryl Compounds as Ligand Directed Degraders of IRAK4” (Celgene Corporation, priority 2023, published 2026)
Structures can show the parent of a compound that is named as a salt.

Tests used:
[1] = target: T1, IRAK4 (Homo sapiens, UniProt Q9NWZ3); experiment: ALE THP1 HTRF (IRAK4 HTRF in THP1 cell lysate, Cisbio HTRF kit); assay type: cell-based; set-up: THP1 Homogeneous Time Resolved Fluorescence (ALE THP1 HTRF) Procedure; endogenous in cells; host or cells: THP1; settings: anti-IRAK4 d2 / anti-IRAK4 k antibodies
T1 sequence (Q9NWZ3 1-460): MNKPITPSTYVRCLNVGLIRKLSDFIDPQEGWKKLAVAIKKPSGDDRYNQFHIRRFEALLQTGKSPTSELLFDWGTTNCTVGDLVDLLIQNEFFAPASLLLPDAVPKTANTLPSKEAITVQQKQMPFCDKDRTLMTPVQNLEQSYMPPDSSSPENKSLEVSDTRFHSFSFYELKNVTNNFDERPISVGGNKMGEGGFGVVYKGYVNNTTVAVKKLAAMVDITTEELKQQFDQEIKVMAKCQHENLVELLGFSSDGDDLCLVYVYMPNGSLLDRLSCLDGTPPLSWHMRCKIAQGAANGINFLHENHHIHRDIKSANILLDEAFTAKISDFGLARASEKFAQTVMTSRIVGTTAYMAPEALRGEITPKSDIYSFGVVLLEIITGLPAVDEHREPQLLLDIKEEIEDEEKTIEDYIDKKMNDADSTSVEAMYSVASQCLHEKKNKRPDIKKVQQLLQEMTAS
Description: Cell culture media was prepared in a tissue culture hood in a sterile environment by adding 10% FBS and 1% Penicillin Streptomycin to 500 mL no phenol red RPMI 1640 media. The media was filtered through a Nalgene Bottle Top Filter and stored at 4° C.
For Homogenous Time Resolved Fluorescence (HTRF) assays, a Cisbio HTRF kit was used, which included: Lysis Buffer #1 4×, Blocking Reagent #3 100×, 20× Antibody 1 (Anti-IRAK4 d2), 20× Antibody 2 (Anti-IRAK4 k), and Detection Buffer.
4× Lysis Buffer was stored at 4° C. For use as 1× Lysis buffer, the 4× solution was diluted with de-ionized water (distilled water, Gibco Cat. #15230279) and 100× Blocking Reagent in a 1:3:0.04 volume ratio.
20× Antibody Solution aliquots were stored at −80° C. and the Detection Buffer was stored at 4° C. For use as a 1× Antibody Solution, the 20× Antibody Solution aliquot was diluted with Detection Buffer in a 1:19 volume ratio.
Cells were lysed at room temperature for 45 min with shaking. A BCA protein assay was performed and normalization was conducted to the desired total protein concentration with 1× lysis buffer. Next, 1× Antibody Solutions were prepared by adding 380 μL Detection Buffer to 20 μL 20× Antibody Solution aliquots and mixing well. 1× Antibody Solutions were combined 1:1 and briefly vortexed. For control wells, 20 μL 1× anti IRAK4-k Antibody Solution was saved. The 384-well plate (ProxiPlate-384 Plus, Perkin Elmer Cat. #6008289) was loaded by adding 4 μL of the mixed Antibody Solution to empty wells using a single channel repeater. Using a multi-channel repeater, 16 μL lysate was added per well, and any bubbles that were formed were popped with 20 μL pipette tips and Kimwipe edges. In column 10, triplicates of each control were prepared. In wells A10, B10, and C10, buffer control was prepared by adding 16 μL Lysis Buffer and 4 μL Detection Buffer. In wells D10, E10, and F10, cryptate control was prepared by adding 16 μL Lysis Buffer, 2 μL Detection Buffer, and 2 μL 1× anti-IRAK4-k Antibody Solution. In wells G10, H10, and 110, a negative control was prepared by adding 16 μL Lysis Buffer and 4 μL mixed Antibody Solution. The plate was sealed with a clear seal and covered with an aluminum lid. The plate was spun down at 800 g for 5 min and incubated in the dark at room temperature overnight. The next day, the plate was spun down at 800 g for 5 min. The samples were analyzed by a plate reader (Envision, PerkinElmer) using the Desnor 384 HTRF program.

[2] = target: T1, IRAK4; experiment: IRAK4 PhosphoSens Biochemical Assay (BIOCHEM); settings: IRAK4 1 nM; ATP and Sox conjugated peptide substrate AQT0326; pH 7.5; room temperature; 240 minutes
Description: The PhosphoSens® biochemical assay was performed as described by the vendor (AssayQuant Technologies Inc. Marlborough, MA). A 1.25× stock solution of IRAK4 (PV4002, ThermoFisher Scientific, Waltham, MA) and a 5× stock solution of ATP and Sox conjugated peptide substrate, AQT0326 (CSKS-AQT0326B, AssayQuant Technologies), were prepared in 1× kinase reaction buffer consisting of 50 mM HEPES, pH 7.5, 0.01% Brij-35, 0.5 mM EGTA, 20 mM MgCl2 and 1 mM DTT. 10 μL of the ATP and substrate solution mix, for a final concentration of 200 µM ATP and […] peptide substrate, was added to a Corning 3574 384-well, white, non-binding surface microtiter plate containing 0.5 μL of serially diluted test compounds prepared in DMSO. The reactions were started with the addition of 40 μL of the enzyme solution, for a final IRAK4 concentration of 1 nM, and monitored every 71 seconds for 240 minutes at λEX 360/λEM 485 in a BioTek Synergy H4 plate reader (Agilent Technologies, Santa Clara, CA) at room temperature. The initial linear portions of the progress curves were fit according to a linear equation to yield the slopes and converted to % inhibition based on a value of 100% activity for the no inhibitor treated control. IC50 values of each compound were obtained by fitting the % inhibition-compound concentration curves using Dotmatics software (Dotmatics, Bishops Stortford, Hertfordshire, England),

SMILES | EC50 [1] [nM] | ALE THP1 HTRF YMIN [1] [%] | IC50 [2] [nM]
N[C@@H]1C[C@@H](F)CN(c2ccn3ncc(C(=O)Nc4cn([C@H]5CC[C@H](C(=O)N6CCN(c7ccc8c(c7)C(=O)N(C7CCC(=O)NC7=O)C8)CC6)CC5)nc4C(F)F)c3n2)C1 (stereo partly drawn) [Compound P-21] | 5 | 18 | < 0.5
N[C@@H]1C[C@@H](F)CN(c2ccn3ncc(C(=O)Nc4cn([C@H]5CC[C@H](C(=O)N6CCN(c7ccc8c(c7)C(=O)N(C7CCC(=O)NC7=O)C8)CC6)CC5)nc4C(F)(F)F)c3n2)C1 (stereo partly drawn) [Compound P-22] | 3 | 27 | < 0.5
N#Cc1nn([C@H]2CC[C@H](C(=O)NC3CCN(c4ccc5c(c4)C(=O)N(C4CCC(=O)NC4=O)C5=O)CC3)CC2)cc1NC(=O)c1cnn2ccc(N3C[C@H](N)C[C@@H](F)C3)nc12 (stereo partly drawn) [Compound P-23] | 8 | 20 | < 0.5
N[C@@H]1C[C@@H](F)CN(c2ccn3ncc(C(=O)Nc4cn([C@H]5CC[C@H](C(=O)NC6CCN(c7ccc8c(c7)CN(C7CCC(=O)NC7=O)C8=O)CC6)CC5)nc4C(F)F)c3n2)C1 (stereo partly drawn) [Compound P-24] | 4 | 11 | < 0.5
N[C@@H]1C[C@@H](F)CN(c2ccn3ncc(C(=O)Nc4cn([C@H]5CC[C@H](C(=O)NC6CCN(c7ccc8c(c7)C(=O)N(C7CCC(=O)NC7=O)C8)CC6)CC5)nc4C(F)F)c3n2)C1 (stereo partly drawn) [Compound P-25] | 7 | 11 | < 0.5
N[C@@H]1C[C@@H](F)CN(c2ccn3ncc(C(=O)Nc4cn([C@H]5CC[C@H](CN6CCN(c7ccc8c(c7)C(=O)N(C7CCC(=O)NC7=O)C8=O)CC6)CC5)nc4C(F)F)c3n2)C1 (stereo partly drawn) [Compound P-26] | 6 | 29 | < 0.5
Cc1nn([C@H]2CC[C@H](C(=O)NC3CCN(c4ccc5c(c4)C(=O)N(C4CCC(=O)NC4=O)C5=O)CC3)CC2)cc1NC(=O)c1cnn2ccc(N3C[C@H](N)C[C@@H](F)C3)nc12 (stereo partly drawn) [Compound P-27, N-[1-[4-[[1-[2-(2,6-dioxo-3-piperidyl)-1,3-dioxo-isoindolin-5-yl]-4-piperidyl]carbamoyl]cyclohexyl]-3-methyl-pyrazol-4-yl]-5-[(3R,5R)-3-amino-5-fluoro-1-piperidyl]pyrazolo[1,5-a]pyrimidine-3-carboxamide hydroxhloride] | 26 | 24 | < 0.5

More lines, now with the values ahead:

EC50 [1] [nM] | ALE THP1 HTRF YMIN [1] [%] | IC50 [2] [nM] | SMILES
> 10000 | >95 | > 1 | Cc1c(NC(=O)c2cnn3ccc(N4C[C@H](N)C[C@@H](F)C4)nc23)cnn1[C@H]1CC[C@H](C(=O)NC2CCN(c3ccc4c(c3)C(=O)N(C3CCC(=O)NC3=O)C4=O)CC2)CC1 (stereo partly drawn) [Compound P-28]
4 | 10 | < 0.5 | N[C@@H]1C[C@@H](F)CN(c2ccn3ncc(C(=O)Nc4cn([C@H]5CC[C@H](NC(=O)C6CCN(c7ccc8c(c7)C(=O)N(C7CCC(=O)NC7=O)C8=O)CC6)CC5)nc4C(F)F)c3n2)C1 (stereo partly drawn) [Compound P-29, 5-[(3R,5R)-3-Amino-5-fluoro-1-piperidyl]-N-[3-(difluoromethyl)-1-[4-[[1-[2-(2,6-dioxo-3-piperidyl)-1,3-dioxo-isoindolin-5-yl]piperidine-4-carbonyl]amino]cyclohexyl]pyrazol-4-yl]pyrazolo[1,5-a]pyrimidine-3-carboxamide hydrochloride]
8 | 10 | < 0.5 | N[C@@H]1C[C@@H](F)CN(c2ccn3ncc(C(=O)Nc4cn([C@H]5CC[C@H](CCN6CCN(c7ccc8c(c7)CN(C7CCC(=O)NC7=O)C8=O)CC6)CC5)nc4C(F)F)c3n2)C1 (stereo partly drawn) [Compound P-30, N-[3-(Difluoromethyl)-1-[4-[2-[4-[2-(2,6-dioxo-3-piperidyl)-1-oxo-isoindolin-5-yl]piperazin-1-yl]ethyl]cyclohexyl]pyrazol-4-yl]-5-[(3R,5R)-3-amino-5-fluoro-1-piperidyl]pyrazolo[1,5-a]pyrimidine-3-carboxamide dihydrochloride]
7 | 27 | < 0.5 | O=C1CCC(N2Cc3cc(N4CCC(NC(=O)[C@H]5CC[C@H](n6cc(NC(=O)c7cnn8ccc(N9CCOCC9)nc78)c(C(F)F)n6)CC5)CC4)ccc3C2=O)C(=O)N1 (stereo partly drawn) [Compound P-31, N-[3-(difluoromethyl)-1-[4-[[1-[2-(2,6-dioxo-3-piperidyl)-1-oxo-isoindolin-5-yl]-4-piperidyl]carbamoyl]cyclohexyl]pyrazol-4-yl]-5-morpholino-pyrazolo[1,5-a]pyrimidine-3-carboxamide]
6 | 12 | < 0.5 | CN(C[C@H]1CC[C@H](n2cc(NC(=O)c3cnn4ccc(N5C[C@H](N)C[C@@H](F)C5)nc34)c(C(F)F)n2)CC1)C1CCN(c2ccc3c(c2)CN(C2CCC(=O)NC2=O)C3=O)CC1 (stereo partly drawn) [Compound P-32, N-[3-(Difluoromethyl)-1-[4-[[[1-[2-(2,6-dioxo-3-piperidyl)-1-oxo-isoindolin-5-yl]-4-piperidyl]-methyl-amino]methyl]cyclohexyl]pyrazol-4-yl]-5-[(3r,5r)-3-amino-5-fluoro-1-piperidyl]pyrazolo[1,5-a]pyrimidine-3-carboxamide hydrochloride]
24 | 68 | 9.4 | C[C@@H]1CN(c2ccn3ncc(C(=O)Nc4cn([C@H]5CC[C@H](C(=O)NC6CCN(c7ccc8c(c7)CN(C7CCC(=O)NC7=O)C8=O)CC6)CC5)nc4C(F)F)c3n2)C[C@H](C)O1 (stereo partly drawn) [Compound P-33]
6 | 9 | < 0.5 | CN(c1ccc2c(c1)CN(C1CCC(=O)NC1=O)C2=O)C1CCN(C[C@H]2CC[C@H](n3cc(NC(=O)c4cnn5ccc(N6C[C@H](N)C[C@@H](F)C6)nc45)c(C(F)F)n3)CC2)CC1 (stereo partly drawn) [Compound P-34]
9 | 29 | 0.9 | CN(C[C@H]1CC[C@H](n2cc(NC(=O)c3cnn4ccc(N5CCOCC5)nc34)c(C(F)F)n2)CC1)[C@H]1CC[C@H](Nc2cccc3c2C(=O)N(C2CCC(=O)NC2=O)C3=O)CC1 (stereo partly drawn) [Compound P-36]
20 | 12 | < 0.5 | CN(C[C@H]1CC[C@H](n2cc(NC(=O)c3cnn4ccc(N5C[C@H](N)C[C@@H](F)C5)nc34)c(C(F)F)n2)CC1)[C@H]1CC[C@H](Nc2cccc3c2C(=O)N(C2CCC(=O)NC2=O)C3=O)CC1 (stereo partly drawn) [Compound P-37]
